Measured values from PubChem BioAssay AID1259407 (Chemical Carcinogenesis Research Information System (CCRIS), 2018).
Active and inactive are the calls of the source. The rule behind the calls is not given here.

Test system: CCRIS mutagenicity, Ames/micronucleus/aberration tests
Assay: CCRIS mutagenicity studies

With `Nc1ccc(-c2ccc(N)cc2)cc1` the mutagenic call (End Point: IN VITRO CHROMOSOMAL ABERRATIONS, Test System: CHINESE HAMSTER OVARY CELLS, Metabolic Activation: NONE) was “inactive; negative”, the mutagenic call (End Point: IN VITRO CHROMOSOMAL ABERRATIONS, Test System: CHINESE HAMSTER OVARY CELLS, Metabolic Activation: RAT, LIVER, S-9, AROCLOR 1254) was “active; positive” and the mutagenic call (Test System: AMES SALMONELLA TYPHIMURIUM, Strain/Indicator: DJ400, Metabolic Activation: HUMAN, HEPATOMA CELLS, BENZO[A]ANTHRACENE, Method: PREINCUBATION) was “active; positive”. For the same compound, the mutagenic call (Test System: AMES SALMONELLA TYPHIMURIUM, Strain/Indicator: DJ400, Metabolic Activation: HUMAN, HEPATOMA CELLS, Method: PREINCUBATION) was “active; positive”, the mutagenic call (Test System: AMES SALMONELLA TYPHIMURIUM, Strain/Indicator: DJ400, Metabolic Activation: RAT, LIVER, S-9, AROCLOR 1254, Method: PREINCUBATION) was “active; positive” and the mutagenic call (Test System: AMES SALMONELLA TYPHIMURIUM, Strain/Indicator: DJ400, Metabolic Activation: RAT, LIVER, S-9, Method: PREINCUBATION) was “active; positive”. For the same compound, the mutagenic call (Test System: AMES SALMONELLA TYPHIMURIUM, Strain/Indicator: DJ400, Metabolic Activation: TOBACCO TX1 CELLS, Method: PREINCUBATION) was “inactive; negative”, the mutagenic call (Test System: AMES SALMONELLA TYPHIMURIUM, Strain/Indicator: DJ460, Metabolic Activation: HUMAN, HEPATOMA CELLS, BENZO[A]ANTHRACENE, Method: PREINCUBATION) was “active; positive” and the mutagenic call (Test System: AMES SALMONELLA TYPHIMURIUM, Strain/Indicator: DJ460, Metabolic Activation: HUMAN, HEPATOMA CELLS, Method: PREINCUBATION) was “active; positive”. For the same compound, the mutagenic call (Test System: AMES SALMONELLA TYPHIMURIUM, Strain/Indicator: DJ460, Metabolic Activation: RAT, LIVER, S-9, AROCLOR 1254, Method: PREINCUBATION) was “active; positive”, the mutagenic call (Test System: AMES SALMONELLA TYPHIMURIUM, Strain/Indicator: DJ460, Metabolic Activation: RAT, LIVER, S-9, Method: PREINCUBATION) was “active; positive” and the mutagenic call (Test System: AMES SALMONELLA TYPHIMURIUM, Strain/Indicator: DJ460, Metabolic Activation: TOBACCO CELL-FREE EXTRACT, Method: PREINCUBATION) was “active; positive”. For the same compound, the mutagenic call (Test System: AMES SALMONELLA TYPHIMURIUM, Strain/Indicator: DJ460, Metabolic Activation: TOBACCO TX1 CELLS, Method: PREINCUBATION) was “active; positive”, the mutagenic call (Test System: AMES SALMONELLA TYPHIMURIUM, Strain/Indicator: MP110, Metabolic Activation: TOBACCO TX1 CELLS, Method: PREINCUBATION) was “inactive; negative” and the mutagenic call (Test System: AMES SALMONELLA TYPHIMURIUM, Strain/Indicator: MP120, Metabolic Activation: TOBACCO TX1 CELLS, Method: PREINCUBATION) was “inactive; negative”. The mutagenic call (Test System: AMES SALMONELLA TYPHIMURIUM, Strain/Indicator: MP208, Metabolic Activation: TOBACCO CELL-FREE TXIMX, Method: PREINCUBATION) was “active; positive”, the mutagenic call (Test System: AMES SALMONELLA TYPHIMURIUM, Strain/Indicator: MP219, Metabolic Activation: TOBACCO CELL-FREE TXIMX, Method: PREINCUBATION) was “active; positive” and the mutagenic call (Test System: AMES SALMONELLA TYPHIMURIUM, Strain/Indicator: SV50, Metabolic Activation: HAMSTER, LIVER, S-9, Method: STANDARD PLATE) was “inactive; negative”. For the same compound, the mutagenic call (Test System: AMES SALMONELLA TYPHIMURIUM, Strain/Indicator: SV50, Metabolic Activation: NONE, Method: PREINCUBATION (PRIVAL METHOD)) was “active; positive”, the mutagenic call (Test System: AMES SALMONELLA TYPHIMURIUM, Strain/Indicator: SV50, Metabolic Activation: RAT, LIVER, S-9, AROCLOR 1254, Method: STANDARD PLATE) was “inactive; negative” and the mutagenic call (Test System: AMES SALMONELLA TYPHIMURIUM, Strain/Indicator: TA98(1,8-DNP6), Metabolic Activation: NONE, Method: PREINCUBATION) was “inactive; negative”. The mutagenic call (Test System: AMES SALMONELLA TYPHIMURIUM, Strain/Indicator: TA98(1,8-DNP6), Metabolic Activation: NONE, Method: STANDARD PLATE) was “inactive; negative”, the mutagenic call (Test System: AMES SALMONELLA TYPHIMURIUM, Strain/Indicator: TA98(1,8-DNP6), Metabolic Activation: PLANT CELLS, Method: PREINCUBATION) was “active; positive” and the mutagenic call (Test System: AMES SALMONELLA TYPHIMURIUM, Strain/Indicator: TA98(1,8-DNP6), Metabolic Activation: S-9, Method: STANDARD PLATE) was “inactive; negative”. For the same compound, the mutagenic call (Test System: AMES SALMONELLA TYPHIMURIUM, Strain/Indicator: TA98(1,8-DNP6), Metabolic Activation: TOBACCO CELL-FREE TXIMX, Method: PREINCUBATION) was “inactive; negative”, the mutagenic call (Test System: AMES SALMONELLA TYPHIMURIUM, Strain/Indicator: TA98(NR), Metabolic Activation: TOBACCO CELL-FREE TXIMX, Method: PREINCUBATION) was “active; positive” and the mutagenic call (Test System: AMES SALMONELLA TYPHIMURIUM, Strain/Indicator: TA98, Metabolic Activation: HAMSTER, LIVER, S-9, Method: PREINCUBATION) was “active; positive”. The mutagenic call (Test System: AMES SALMONELLA TYPHIMURIUM, Strain/Indicator: TA98, Metabolic Activation: HAMSTER, LIVER, S-9, Method: PREINCUBATION (PRIVAL METHOD)) was “active; positive”, the mutagenic call (Test System: AMES SALMONELLA TYPHIMURIUM, Strain/Indicator: TA98, Metabolic Activation: HAMSTER, LIVER, S-9, Method: STANDARD PLATE) was “active; positive” and the mutagenic call (Test System: AMES SALMONELLA TYPHIMURIUM, Strain/Indicator: TA98, Metabolic Activation: HUMAN, HEPATOMA CELLS, BENZO[A]ANTHRACENE, Method: PREINCUBATION) was “active; positive”. For the same compound, the mutagenic call (Test System: AMES SALMONELLA TYPHIMURIUM, Strain/Indicator: TA98, Metabolic Activation: HUMAN, HEPATOMA CELLS, Method: PREINCUBATION) was “active; positive”, the mutagenic call (Test System: AMES SALMONELLA TYPHIMURIUM, Strain/Indicator: TA98, Metabolic Activation: MOUSE, LIVER, S-9, Method: STANDARD PLATE) was “active; positive” and the mutagenic call (Test System: AMES SALMONELLA TYPHIMURIUM, Strain/Indicator: TA98, Metabolic Activation: NONE, Method: PREINCUBATION) was “inactive; negative”. For the same compound, the mutagenic call (Test System: AMES SALMONELLA TYPHIMURIUM, Strain/Indicator: TA98, Metabolic Activation: NONE, Method: STANDARD PLATE) was “inactive; negative”, the mutagenic call (Test System: AMES SALMONELLA TYPHIMURIUM, Strain/Indicator: TA98, Metabolic Activation: PLANT CELLS, Method: PREINCUBATION) was “active; positive” and the mutagenic call (Test System: AMES SALMONELLA TYPHIMURIUM, Strain/Indicator: TA98, Metabolic Activation: RAT LIVER S-9, AROCLOR 1254, Method: PREINCUBATION) was “active; positive”. For the same compound, the mutagenic call (Test System: AMES SALMONELLA TYPHIMURIUM, Strain/Indicator: TA98, Metabolic Activation: RAT, BLADDER, S-9, PCB, Method: FLUCTUATION TEST) was “inactive; negative”, the mutagenic call (Test System: AMES SALMONELLA TYPHIMURIUM, Strain/Indicator: TA98, Metabolic Activation: RAT, LIVER, S-9, AROCLOR 1254, Method: PREINCUBATION) was “active; positive” and the mutagenic call (Test System: AMES SALMONELLA TYPHIMURIUM, Strain/Indicator: TA98, Metabolic Activation: RAT, LIVER, S-9, AROCLOR 1254, Method: STANDARD PLATE) was “active; positive”. The mutagenic call (Test System: AMES SALMONELLA TYPHIMURIUM, Strain/Indicator: TA98, Metabolic Activation: RAT, LIVER, S-9, PHENOBARBITAL, Method: STANDARD PLATE) was “active; positive”, the mutagenic call (Test System: AMES SALMONELLA TYPHIMURIUM, Strain/Indicator: TA98, Metabolic Activation: RAT, LIVER, S-9, Method: PREINCUBATION) was “active; positive” and the mutagenic call (Test System: AMES SALMONELLA TYPHIMURIUM, Strain/Indicator: TA98, Metabolic Activation: S-9, Method: STANDARD PLATE) was “active; positive”. For the same compound, the mutagenic call (Test System: AMES SALMONELLA TYPHIMURIUM, Strain/Indicator: TA98, Metabolic Activation: TOBACCO CELL-FREE TXIMX, Method: PREINCUBATION) was “active; positive”, the mutagenic call (Test System: AMES SALMONELLA TYPHIMURIUM, Strain/Indicator: TA100(NR), Metabolic Activation: TOBACCO CELL-FREE TXIMX, Method: PREINCUBATION) was “inactive; negative” and the mutagenic call (Test System: AMES SALMONELLA TYPHIMURIUM, Strain/Indicator: TA100(TN:OAT), Metabolic Activation: TOBACCO CELL-FREE TXIMX, Method: PREINCUBATION) was “inactive; negative”. For the same compound, the mutagenic call (Test System: AMES SALMONELLA TYPHIMURIUM, Strain/Indicator: TA100, Metabolic Activation: HUMAN, LIVER, S-9, Method: STANDARD PLATE) was “active; positive”, the mutagenic call (Test System: AMES SALMONELLA TYPHIMURIUM, Strain/Indicator: TA100, Metabolic Activation: NONE, Method: PREINCUBATION) was “inactive; negative” and the mutagenic call (Test System: AMES SALMONELLA TYPHIMURIUM, Strain/Indicator: TA100, Metabolic Activation: NONE, Method: STANDARD PLATE) was “inactive; negative”. The mutagenic call (Test System: AMES SALMONELLA TYPHIMURIUM, Strain/Indicator: TA100, Metabolic Activation: RAT LIVER S-9, AROCLOR 1254, Method: PREINCUBATION) was “inactive; negative”.
